Results reported in patent publication US20130267606A1, “USE OF VITAMIN K FOR WEIGHT MAINTENANCE AND WEIGHT CONTROL” (VITAK B.V., priority 2011, published 2013).
Like-named read-outs stand apart in the source and are kept apart here.

What was measured:
[1] = placebo controlled randomized 3-year trial of vitamin K2 (MK-4) on BMI and serum markers in postmenopausal women (Example 3); assay type: in vivo, human; conditions: for serum ucOC / serum cOC: mean±SD
[2] = system: adipogenesis; conditions: in vitro; cited from earlier work
[3] = placebo controlled 3-year randomized trial of vitamin K2 (MK-7) on body weight and BMI in postmenopausal women (Example 4); assay type: in vivo, human
Description: 250 apparently healthy postmenopausal women (age range: 55-75 years) were recruited in a placebo controlled 3-year randomized trial to investigate the influence of vitamin K2 (MK-7, 180 μg/day) on body weight and BMI. Exclusion criteria were: BMI>30 kg/m^2, a medical history or use of drugs known to interfere with vitamin K-, calcium- and/or glucose-metabolism. Body height was measured using a wall-mounted stadiometer. Body weight was measured to the nearest 0.1 kg with participants wearing light clothing and no shoes. Body mass index (BMI) was calculated as body weight (kg) divided by the square of height (m^2). Statistical analysis was performed using the statistical package (SPSS vs 17.0 Corp, Chicago, Ill.). […] In the unpaired t-test the difference in response to treatment was statistically significant at P<0.005 after 3 years.

[4] = vitamin K2 (MK-7) dose-response study, circulating osteocalcin and adiponectin (Example 2); assay type: in vivo, human
[5] = after 3 years of supplementation, cited from earlier work
[6] = placebo controlled 2-year randomized trial of vitamin K1 on body weight and BMI during and after weight reduction intervention (Example 5); assay type: in vivo, human; conditions: vitamin K1 1 mg/day
Description: 120 apparently healthy but overweight subjects (age range: 35-60 years, 52 men, 68 women) were recruited in a placebo controlled 2-year randomized trial to investigate the influence of vitamin K1 (1 mg/day) on body weight and BMI during and after a 6-month intervention aiming significant weight reduction. At the start of the study participants were randomized to receive either placebo or vitamin K for 24 months. All participants received extensive dietary counselling and were motivated to increase their physical exercise during the first 6 months of the study, with personal contact once weekly. After this initial period, counselling was stopped, but vitamin K/placebo treatment was continued for another 18 months, while participants visited our institute every half year. Inclusion criteria were: apparently healthy, BMI between 25 and 35 kg/m^2, Exclusion criteria were: a medical history or use of drugs known to interfere with vitamin K-, calcium- and/or glucose-metabolism. Body height was measured using a wall-mounted stadiometer. Body weight was measured to the nearest 0.1 kg with participants wearing light clothing and no shoes. Body mass index (BMI) was calculated as body weight (kg) divided by the square of height (m^2). Statistical analysis was performed using the statistical package (SPSS vs 17.0 Corp, Chicago, Ill.).

[7] = 1 year of supplementation, healthy postmenopausal women; cited from earlier work
[8] = 62.5 mg/kg body weight per day, rats; cited from earlier work
[9] = second phase of the study (18 months)

## CC(C)=CCC/C(C)=C/CC/C(C)=C/CC/C(C)=C/CC1=C(C)C(=O)c2ccccc2C1=O [MK-4]
[1]; after 3 years MK-4 45 mg/day
  UCR (ucOC/cOC ratio): 0.12±0.15
[1]; after 3 years MK-4 45 mg/day versus baseline, P<0.0001
  decrease of UCR: 74±22%
[1]; after 3 years MK-4 45 mg/day, P<0.0001
  serum ucOC: 0.8 ± 1.0 ng/mL
[1]; after 3 years MK-4 45 mg/day, P=0.046
  serum cOC: 6.9 ± 2.3 ng/mL
[1]; after 3 years MK-4 45 mg/day, no significant difference to placebo (P=0.224)
  circulating adiponectin: 13.1 ± 8.3 µg/mL
[1]; after 3 years MK-4 45 mg/day, non-significant increase (P=0.463)
  BMI: 27.2±0.3 kg/m^2
[1]; baseline, MK-4 group
  BMI: 27.1±0.3 kg/m^2
  UCR (ucOC/cOC ratio): 0.54±0.35
  serum cOC: 6.4 ± 2.5 ng/mL
  serum ucOC: 3.2 ± 1.9 ng/mL
[1]; baseline, MK-4 group, no significant difference to placebo (P=0.562)
  circulating adiponectin: 14.2 ± 9.7 µg/mL
[1]; remained constant over 3 years MK-4 45 mg/day
  average body weight: 70.3 ± 0.9 kg
[2]
  adipogenesis: inhibited
  osteoblastic differentiation: stimulated
[3]; after 3 years supplementation (180 μg/day), P=0.463
  BMI: 25.4±3.0 kg/m^2
[3]; after 3 years supplementation (180 μg/day), non-significant change
  average body weight: 67.4 kg
[3]; baseline, treated group
  BMI: 25.2±2.8 kg/m^2
  average body weight: 66.9 kg

## CC(C)=CCC/C(C)=C/CC/C(C)=C/CC/C(C)=C/CC/C(C)=C/CC/C(C)=C/CC/C(C)=C/CC1=C(C)C(=O)c2ccccc2C1=O [MK-7]
[4]; MK-7 45-360 μg per day for 12 weeks, effect even at 45 μg/day
  ucOC/cOC ratio: significant decrease
[4]; MK-7 45-360 μg per day for 12 weeks, effect even at 45 μg/day, healthy men and premenopausal women
  circulating ucOC: significant decrease
[4]; nutritional levels of MK-7, 12 weeks
  circulating adiponectin: does not affect
[3]; nutritionally relevant intake, MK-7 180 μg/day, 3 years, versus placebo increase
  effect on body weight and BMI: maintenance of body weight and BMI

## CC1=C(C/C=C(\C)CCC[C@H](C)CCC[C@H](C)CCCC(C)C)C(=O)c2ccccc2C1=O [vitamin K1, phylloquinone]
[5]; older men
  progression of insulin resistance: reduced
[5]; women
  progression of insulin resistance: not
[6]; first 6 months with dietary counselling and exercise
  decrease of average body weight and BMI versus placebo: non-significant better performance
[6]; following 18 months (second phase), p<0.05
  average weight gain versus placebo group: significantly lower
[6]; [9]
  participants returned to their starting weight: 7 participants
  participants without significant weight gain: 28 participants
[7]
  glucose metabolism: did not alter
[2]
  adipogenesis: not

## menaquinone [vitamin K2]
[8]
  effect in animal model for auto-immune disease: protective
